SMILES strings stand for the structures.

This assay deals with T1, Gonadotropin-releasing hormone receptor (Homo sapiens, UniProt P30968).
T1 sequence (P30968 whole entry): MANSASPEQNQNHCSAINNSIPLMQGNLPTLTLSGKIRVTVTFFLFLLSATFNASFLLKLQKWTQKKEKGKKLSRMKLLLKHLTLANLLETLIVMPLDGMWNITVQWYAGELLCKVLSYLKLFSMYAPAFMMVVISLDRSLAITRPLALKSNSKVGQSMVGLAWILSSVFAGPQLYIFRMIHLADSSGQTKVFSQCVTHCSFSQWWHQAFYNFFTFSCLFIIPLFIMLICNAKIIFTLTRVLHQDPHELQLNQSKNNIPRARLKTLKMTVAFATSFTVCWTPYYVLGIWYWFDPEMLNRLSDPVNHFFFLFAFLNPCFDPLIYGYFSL
Put plainly: Binding affinity was determined against human gonadotropin-releasing hormone receptor.
One may read the Ki as the dissociation constant of the complex between target and ligand, obtained from inhibition or displacement. Turning to `COc1cccc(-c2c3n(c(=O)n(CCNCc4ccccc4)c2=O)[C@@H](c2ccccc2)CO3)c1F`, the Ki came to 460 nM.
With `N[C@@H](Cn1c(=O)c(-c2ccccc2F)c2n(c1=O)C(c1ccccc1)CS2)c1ccccc1` (stereo not given in full) the figure was 110 nM; with `COc1cccc(-c2c3n(c(=O)n(CC(N)c4ccccc4)c2=O)C(c2ccccc2)CO3)c1` (stereo not given), 870 nM; with `NC(Cn1c(=O)c(-c2ccccc2Cl)c2n(c1=O)C(c1ccccc1F)CS2)c1ccccc1` (stereo not given), 93 nM.
Then `COc1cccc(-c2c3n(c(=O)n(CC(N)c4ccccc4)c2=O)C(c2ccccc2F)CS3)c1Cl` (stereo not given), with 4.5 nM.
Regarding `NC(Cn1c(=O)c(-c2ccccc2F)c2n(c1=O)C(c1ccccc1)CO2)c1ccccc1` (stereo not given), affinity was put at a Ki of 700 nM.
In the case of `NC(Cn1c(=O)c(-c2ccccc2F)c2n(c1=O)C(c1ccccc1F)CO2)c1ccccc1` (stereo not given), the affinity corresponds to a Ki of 230 nM.
In turn, `COc1cccc(-c2c3n(c(=O)n(CC(N)c4ccccc4)c2=O)C(c2ccccc2F)CS3)c1F` (stereo not given) showed a Ki of 40 nM.
For `NC(Cn1c(=O)c(-c2ccccc2F)c2n(c1=O)C(c1ccccc1F)CS2)c1ccccc1` (stereo not given), affinity was put at a Ki of 220 nM.
The molecule `COc1cccc(-c2c3n(c(=O)n(CC(N)c4ccccc4)c2=O)C(c2ccccc2)CO3)c1F` (stereo not given) registered an inhibition constant (Ki) of 125 nM.

These data come from ChEMBL document CHEMBL1142009, “Efficient synthesis of bicyclic oxazolino- and thiazolino[3,2-c]pyrimidine-5,7-diones and its application to the synthesis of GnRH antagonists” (Bioorg Med Chem Lett, 2005).
